US20260317313A1, “DNA Polymerase Theta Inhibitors Containing Non-Saturated 5-Membered Heterocyclic Rings and Use Thereof” (Thomas Jefferson University, priority 2022, published 2026)

What follows are compounds tested against T1, recombinant human Polq polymerase domain (residues 1792-2590) (Homo sapiens, UniProt O75417) (assay: Cy5 fluorescence assay of Polq polymerase enzymatic activity). Settings: 5 nM Polq polymerase domain, 60 nM primer-template, 50 uM dNTPs, 37° C., 18 min, 2.5% DMSO, triplicate.
T1 sequence (O75417 1792-2590): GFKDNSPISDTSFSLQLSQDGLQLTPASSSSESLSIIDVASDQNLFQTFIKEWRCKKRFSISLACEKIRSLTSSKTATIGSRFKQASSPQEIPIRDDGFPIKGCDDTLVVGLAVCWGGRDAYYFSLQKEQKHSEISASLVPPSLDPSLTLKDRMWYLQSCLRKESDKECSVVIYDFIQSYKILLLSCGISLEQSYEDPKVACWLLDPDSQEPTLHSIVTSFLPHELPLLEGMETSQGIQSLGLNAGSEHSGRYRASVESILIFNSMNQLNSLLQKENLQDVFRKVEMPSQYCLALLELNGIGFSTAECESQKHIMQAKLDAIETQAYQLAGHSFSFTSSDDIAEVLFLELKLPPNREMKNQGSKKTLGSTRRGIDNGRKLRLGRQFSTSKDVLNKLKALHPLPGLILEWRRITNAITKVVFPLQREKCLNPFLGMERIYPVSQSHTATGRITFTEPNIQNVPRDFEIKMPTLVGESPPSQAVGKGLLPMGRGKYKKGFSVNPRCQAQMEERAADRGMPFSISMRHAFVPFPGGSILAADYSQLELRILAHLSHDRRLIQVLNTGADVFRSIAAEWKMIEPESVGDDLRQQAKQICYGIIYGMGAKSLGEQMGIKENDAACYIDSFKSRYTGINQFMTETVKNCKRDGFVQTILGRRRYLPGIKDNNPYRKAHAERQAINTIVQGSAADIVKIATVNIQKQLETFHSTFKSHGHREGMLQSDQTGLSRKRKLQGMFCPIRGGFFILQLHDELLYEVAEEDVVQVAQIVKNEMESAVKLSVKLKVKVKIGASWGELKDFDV
Type: biochemical
Procedure: The following Cy5 fluorescence assay was used to measure the ability of compounds to inhibit Polq polymerase domain in vitro. The fluorescent based assay was performed as follows: 60 nM of the pre-annealed primer-template containing a 5′ Cy5 fluorophore conjugated template strand (SEQ ID NO 6: 5′-/5Cy5/ […] GGACAG-3′), a downstream complementary oligo conjugated with a 3′ Blackhole quencher (SEQ ID NO 7: 5′-CTAAGCTCACAGTG/3IAbRQSp/-3′) and a primer strand (SEQ ID NO 8: 5′-CTGTCCTGCATGATG-3′) was mixed with 50 uM 2′-deoxyribonucleoside triphosphates (dNTPs), 0.1 mg/mL Bovine serum albumin (BSA), 0.01% NP-40, 10% glycerol, 1 mM dithiothreitol (DTT), 10 mM MgCl2, 25 mM TrisHCl pH 7.8 in the presence of 2.5% DMSO with or without various concentrations (7-point dilution series) of Polq small molecule inhibitors represented by Formula I at 37° C. in a volume of 40 μL.

Structure (SMILES)	IC50 [nM]
CN(C(=O)Oc1c(-c2cn(CCO)nn2)cc(C(F)(F)F)cc1C(F)(F)F)c1ccc(F)cc1 [Example 1]	4.8

Same assay, conditions: 5 nM Polq polymerase domain, 60 nM primer-template, 50 uM dNTPs, 37° C., 18 min, 2.5% DMSO, triplicate; read-out: Polq IC50

Structure (SMILES)	IC50 [nM]
CC(C)(C)OC(=O)n1ccn(-c2cc(C(F)(F)F)cc(C(F)(F)F)c2OC(=O)N(CC#N)c2ccc(F)cc2)c1=O [Example 19, tert-butyl 3-(2-{[(cyanomethyl)(4-fluorophenyl)carbamoyl]oxy}-3,5-bis(trifluoromethyl)phenyl)-2-oxo-2,3-dihydro-1H-imidazole-1-carboxylate]	295
N#CCN(C(=O)Oc1c(-n2cc[nH]c2=O)cc(C(F)(F)F)cc1C(F)(F)F)c1ccc(F)cc1 [Example 20, 2-(2-oxo-2,3-dihydro-1H-imidazol-1-yl)-4,6-bis(trifluoromethyl)phenyl N-(cyanomethyl)-N-(4-fluorophenyl)carbamate]	439

Same assay, conditions: Polq IC50, 5 nM Polq polymerase domain, 60 nM primer-template, 50 uM dNTPs, 37° C., 18 min, 2.5% DMSO, triplicate

Structure (SMILES)	IC50 [nM]
[2H]C([2H])([2H])N(C(=O)Oc1c(-c2cn(CC(O)CNC)nn2)cc(C(F)(F)F)cc1C(F)(F)F)c1ccc(F)cc1 (stereo not drawn) [Example 29, 2-{1-[2-hydroxy-3-(methylamino)propyl]-1H-1,2,3-triazol-4-yl}-4,6-bis(trifluoromethyl)phenyl N-(4-fluorophenyl)-N-(methyl-d3)carbamate]	3.4
[2H]C([2H])([2H])N(C(=O)Oc1c(-n2cn[nH]c2=O)cc(C(F)(F)F)cc1C(F)(F)F)c1ccc(F)cc1 [Example 34, 2-(5-oxo-4,5-dihydro-1H-1,2,4-triazol-4-yl)-4,6-bis(trifluoromethyl)phenyl N-(4-fluorophenyl)-N-(methyl-d3)carbamate]	51
[2H]C([2H])([2H])N(C(=O)Oc1c(-n2cc[nH]c2=O)cc(C(F)(F)F)cc1C(F)(F)F)c1ccc(F)c(Cl)c1F [Example 9, 2-(2-oxo-2,3-dihydro-1H-imidazol-1-yl)-4,6-bis(trifluoromethyl)phenyl 3-chloro-2,4-difluorophenyl(methyl-d3)carbamate]	2.4
CN(C(=O)Oc1c(-c2cn(CCOCCOCCOCCOCC(=O)Nc3cccc4c3C(=O)N(C3CCC(=O)NC3=O)C4=O)nn2)cc(C(F)(F)F)cc1C(F)(F)F)c1ccc(F)cc1 (stereo not drawn) [Example 8, 2-(1-(14-((2-(2,6-dioxopiperidin-3-yl)-1,3-dioxoisoindolin-4-yl)amino)-14-oxo-3,6,9,12-tetraoxatetradecyl)-1H-1,2,3-triazol-4-yl)-4,6-bis(trifluoromethyl)phenyl (4-fluorophenyl) (methyl)carbamate]	4.2
CN(C(=O)Oc1c(-c2cn(CCOCCOCC(=O)Nc3cccc4c3C(=O)N(C3CCC(=O)NC3=O)C4=O)nn2)cc(C(F)(F)F)cc1C(F)(F)F)c1ccc(F)cc1 (stereo not drawn) [Example 6, 2-(1-(2-(2-(2-((2-(2,6-dioxopiperidin-3-yl)-1,3-dioxoisoindolin-4-yl)amino)-2-oxoethoxy)ethoxy)ethyl)-1H-1,2,3-triazol-4-yl)-4,6-bis(trifluoromethyl)phenyl (4-fluorophenyl)(methyl)carbamate]	4
Cc1ncsc1-c1ccc(CNC(=O)[C@@H]2C[C@@H](O)CN2C(=O)[C@@H](NC(=O)CCOCCOCCn2cc(-c3cc(C(F)(F)F)cc(C(F)(F)F)c3OC(=O)N(C)c3ccc(F)cc3)nn2)C(C)(C)C)cc1 [Example 37, 2-(1-(2-(2-(3-(((S)-1-((2S,4R)-4-hydroxy-2-((4-(4-methylthiazol-5-yl)benzyl)carbamoyl)pyrrolidin-1-yl)-3,3-dimethyl-1-oxobutan-2-yl)amino)-3-oxopropoxy)ethoxy)ethyl)-1H-1,2,3-triazol-4-yl)-4,6-bis(trifluoromethyl)phenyl (4-fluorophenyl)(methyl)carbamate]	4.6
[2H]C([2H])([2H])N(C(=O)Oc1c(-n2cncn2)cc(C(F)(F)F)cc1C(F)(F)F)c1ccc(F)cc1 [Example 32, 2-(1H-1,2,4-triazol-1-yl)-4,6-bis(trifluoromethyl)phenyl N-(4-fluorophenyl)-N-(methyl-d3)carbamate]	18
[2H]C([2H])([2H])N(C(=O)Oc1c(-c2cn(CC(O)CN(C)C)nn2)cc(C(F)(F)F)cc1C(F)(F)F)c1ccc(F)cc1 (stereo not drawn) [Example 30, 2-{1-[3-(dimethylamino)-2-hydroxypropyl]-1H-1,2,3-triazol-4-yl}-4,6-bis(trifluoromethyl)phenyl N-(4-fluorophenyl)-N-(methyl-d3)carbamate]	1.6
[2H]C([2H])([2H])N(C(=O)Oc1c(-c2nnco2)cc(C(F)(F)F)cc1C(F)(F)F)c1ccc(F)cc1 [Example 31, 2-(1,3,4-oxadiazol-2-yl)-4,6-bis(trifluoromethyl)phenyl N-(4-fluorophenyl)-N-(methyl-d3)carbamate]	5.6
[2H]C([2H])([2H])N(C(=O)Oc1c(-n2cc[nH]c2=O)cc(C(F)(F)F)cc1C(F)(F)F)c1ccc(F)cc1 [Example 10, 2-(2-oxo-2,3-dihydro-1H-imidazol-1-yl)-4,6-bis(trifluoromethyl)phenyl 4-fluorophenyl(methyl-d3)carbamate]	2.9
CN(C(=O)Oc1c(-c2cn(CCCCCCCCC(=O)Nc3cccc4c3C(=O)N(C3CCC(=O)NC3=O)C4=O)nn2)cc(C(F)(F)F)cc1C(F)(F)F)c1ccc(F)cc1 (stereo not drawn) [Example 7, 2-(1-(9-((2-(2,6-dioxopiperidin-3-yl)-1,3-dioxoisoindolin-4-yl)amino)-9-oxononyl)-1H-1,2,3-triazol-4-yl)-4,6-bis(trifluoromethyl)phenyl (4-fluorophenyl) (methyl)carbamate]	5.8
CN(C(=O)Oc1c(-c2cn(C3CC(O)C3)nn2)cc(C(F)(F)F)cc1C(F)(F)F)c1ccc(F)cc1 (stereo not drawn) [Example 11, 2-[1-(3-hydroxycyclobutyl)-1H-1,2,3-triazol-4-yl]-4,6-bis(trifluoromethyl)phenyl N-(4-fluorophenyl)-N-methylcarbamate]	2
[2H]C([2H])([2H])N(C(=O)Oc1c(-c2cn(CC3(O)CNC3)nn2)cc(C(F)(F)F)cc1C(F)(F)F)c1ccc(F)c(Cl)c1F [Example 16, 2-{1-[(3-hydroxyazetidin-3-yl)methyl]-1H-1,2,3-triazol-4-yl}-4,6-bis(trifluoromethyl)phenyl N-(3-chloro-2,4-difluorophenyl)-N-(methyl-d3)carbamate]	1.5
[2H]C([2H])([2H])N(C(=O)Oc1c(-c2cn(C3C[C@@H](O)[C@@H](O)C3)nn2)cc(C(F)(F)F)cc1C(F)(F)F)c1ccc(F)cc1 (mixture of isomers) [Example 12, 2-{1-[(3R,4S)-3,4-dihydroxycyclopentyl]-1H-1,2,3-triazol-4-yl}-4,6-bis(trifluoromethyl)phenyl N-(4-fluorophenyl)-(methyl-d3)carbamate (Racemate)]	2.2
[2H]C([2H])([2H])N(C(=O)Oc1c(-c2nnn[nH]2)cc(C(F)(F)F)cc1C(F)(F)F)c1ccc(F)cc1 [Example 21, 2-(1H-1,2,3,4-tetrazol-5-yl)-4,6-bis(trifluoromethyl)phenyl N-(4-fluorophenyl)-N-(methyl-d3)carbamate]	3.2
CN(C(=O)Oc1c(-c2cn(CCCCCC(=O)Nc3cccc4c3C(=O)N(C3CCC(=O)NC3=O)C4=O)nn2)cc(C(F)(F)F)cc1C(F)(F)F)c1ccc(F)cc1 (stereo not drawn) [Example 4, 2-(1-(6-((2-(2,6-dioxopiperidin-3-yl)-1,3-dioxoisoindolin-4-yl)amino)-6-oxohexyl)-1H-1,2,3-triazol-4-yl)-4,6-bis(trifluoromethyl)phenyl (4-fluorophenyl) (methyl)carbamate]	5.5
[2H]C([2H])([2H])N(C(=O)Oc1c(-c2cnn(CC(O)CN(C)C)c2)cc(C(F)(F)F)cc1C(F)(F)F)c1ccc(F)cc1 (stereo not drawn) [Example 25, 2-{1-[3-(dimethylamino)-2-hydroxypropyl]-1H-pyrazol-4-yl}-4,6-bis(trifluoromethyl)phenyl N-(4-fluorophenyl)-N-(methyl-d3)carbamate]	24
[2H]C([2H])([2H])N(C(=O)Oc1c(-c2cn(C3CN(S(=O)(=O)CCN)C3)nn2)cc(C(F)(F)F)cc1C(F)(F)F)c1ccc(F)c(Cl)c1F [Example 33, 2-{1-[1-(2-aminoethanesulfonyl)azetidin-3-yl]-1H-1,2,3-triazol-4-yl}-4,6-bis(trifluoromethyl)phenyl N-(3-chloro-2,4-difluorophenyl)-N-(methyl-d3)carbamate]	2.9
